Where a SMILES comes first, the peptide text is derived from it. [ ]: non-standard residue; d: D form. Orn = NCCC[C@H](N)C(=O)O
Tests used:
[1] = Net charge of peptide at pH 7.5 in physiological solution; assay type: physicochemical; settings: per peptide, pH 7.5, physiological solution
[2] = tested on: tissue surrounding the injection site; design: species or system mice; settings: mouse, in vivo
Description: Injection of P11-3 and P11-8 peptide solutions in cell media in mice has shown no effect of the presence of the peptide in the tissue surrounding the injection site as judged by histology after two and eight weeks following the peptide injection.

[3] = Fibril dimensions measured from TEM images; assay type: physicochemical; settings: for L, fibril contour length / h, twist pitch / l, fibril persistence length / wn, width of the fibril at its narrowest point / ww, width of the fibril at its widest point: physiological conditions, TEM
Description: For, electron microscopy, samples were examined using a Phillips CM10 TEM at 80-100 kV accelerating voltage. Gels were diluted to a peptide concentration of 20 μM seconds before application to a glow-discharged, carbon-coated, copper grid followed by coating with uranyl acetate solution (4% w/v in water).
The dimensions of the fibrils formed by these peptides are given in Table 2, and TEM images from which these measurements were obtained are shown in FIGS. 6A-6D. These dimensions are—the length of a peptide fibril (contour length, L), the length of a peptide fibril before it curves (persistence length, l), the length of a full twist of a peptide fibril (twist pitch, h) the width of a fibril at its widest point (ww) and the width of the fibril at its narrowest point as it twists (wn).

[4] = Self-assembly and gel formation in physiological solution / cell media; assay type: physicochemical
[5] = as above; assay type: physicochemical; remark: listed apart in the source
Description: A large number (dozens) of systematically varied peptides (typically 7-30 residues long) have been studied for soluble polymer and gel formation in cell media. […] Only peptides with a approximate net +2 or −2 charge per peptide at physiological pH=7.5, were able to form soluble polymers and gel cell media (The amount of net charge necessary per peptide to keep its polymers soluble in cell media will vary depending on the overall surface properties and solubility of the peptide tapes it forms). […] These peptides retained a predominantly monomeric state and their solutions in cell media were fluids up to around 40 mg/ml peptide concentration.
The rationally designed peptide P11-8 (Tables 1A and 1C) was dissolved in 145 mM NaCl, pH˜7.5 aqueous solution (the ionic strength and pH values of the solution were similar to those present in cell culture medium) or it was added directly in cell culture medium.
The fibrils of P11-8 entwined partly with each other forming a three dimensional network and turned the peptide solution in cell media into a homogeneous self-supporting gel at peptide concentration higher than 15 mg/ml.
The gel could be temporarily broken by mechanical agitation. The time it took the gel to reform depended on the peptide concentration, ranging from seconds for a 35 mg/ml peptide gel, to hours for a 15 mg/ml peptide gel.

L929 murine fibroblasts = assay: Contact cytotoxicity testing; assay type: cell-based; settings: peptide gels in culture with L929 fibroblasts
Description: L929 murine fibroblasts growing in contact with the negative collagen control are shown in FIG. 5B and the positive control of cyanoacrylate adhesive is shown in FIG. 5A.

L929 fibroblast cells = assay: Cell density in peptide gels by ATPLite assay; assay type: cell-based, murine
Description: After establishing that the peptides tested were not cytotoxic when placed in culture with L929 fibroblast cells, the next stage was assessing the suitability of the collagen peptide gels for use in supporting cell proliferation.

[6] = Isotropic to nematic transition concentration; assay type: physicochemical; settings: ribbons of P11-1, fibrils of P11-2
Description: We have also shown that above a certain peptide concentration cI/N (isotropic to nematic transition concentration) the semi-rigid ribbons, fibrils and fibres can align and thus transform their initially isotropic solution into a nematic liquid crystalline solution. The transition of the solution to the nematic liquid crystalline state happens at lower concentrations for more rigid polymers. For example, the nematic transition for solutions of ribbons of P11-1 peptide occurs at cI/N≈13 mM, whilst the nematic transition for solutions of the much more rigid fibrils of P11-2 peptide occurs at cI/N≈0.9 mM.

[7] = Persistence length of tapes, ribbons and fibrils in water; assay type: physicochemical
Description: The tapes, ribbons, fibrils and fibres are increasingly more rigid structures.

[8] = Geometrical sizes from X-ray diffraction data and molecular modelling; assay type: physicochemical
Description: FIG. 2. Model of hierarchical self-assembly of beta-sheet forming peptides. Each peptide in beta-strand conformation, is depicted as a chiral rod-like unit (a). Local arrangements (c-f) and the corresponding global equilibrium conformations (c′-f′) for the hierarchical self-assembling structures formed in solutions of chiral molecules (a), which have complementary donor and acceptor groups, shown by arrows, via which they interact and align to form tapes (c). The black and the white surfaces of the rod (a) are reflected in the sides of the helical tape (c) which is chosen to curl towards the black side (c′). The outer sides of the twisted ribbon (d), of the fibril (e) and of the fibre (f) are all white. One of the fibrils in the fibre (f′) is drawn with darker shade for clarity. (e) & (f) show the front views of the edges of fibrils and fibres, respectively. Geometrical sizes (the numbers in parentheses show the values of the corresponding geometric sizes for P11-I and P11-II peptides, based on X-ray diffraction data and molecular modelling): inter-rod separation in a beta-sheet tape b2 (b2=0.47 nm); tape width, equal to the length of a rod, b1 (b1=4 nm); inter-ribbon distance in the fibril, α (α=1.6-2 nm for P11-I, and α=2-2.4 nm for P11-II).

[9] = 145 mM NaCl, pH~7.5 or cell culture medium

For `CC(=O)N[C@@H](CCC(N)=O)C(=O)N[C@@H](CCC(N)=O)C(=O)N[C@@H](CCCNC(=N)N)C(=O)N[C@@H](Cc1ccccc1)C(=O)N[C@@H](CCCN)C(=O)N[C@@H](Cc1c[nH]c2ccccc12)C(=O)N[C@@H](CCCN)C(=O)N[C@@H](Cc1ccccc1)C(=O)N[C@@H](CCC(=O)O)C(=O)N[C@@H](CCC(N)=O)C(=O)N[C@@H](CCC(N)=O)C(N)=O` [Peptide P11-8, CH3CO-Q-Q-R-F-O-W-O-F-E-Q-Q-NH2] (Ac-QQRF[Orn]W[Orn]FEQQ-NH2), the “Net charge at pH 7.5” value [1] was “+2”, the “effect on tissue surrounding the injection site by histology” value [2] was “no effect” and the fibril full pitch [3, 9] was 200-300 nm. The fibril length [3, 9] was “several micrometers”, the fibril narrow width [3, 9] was 4-5 nm and the fibril wide width [3, 9] was 12-15 nm. The “L, fibril contour length” value [3] was 1.2-6.3 μm, the “h, twist pitch” value [3] was 140-320 nm and the “l, fibril persistence length” value [3] was 0.8-2.5 μm. The “wn, width of the fibril at its narrowest point” value (“wn, width of the fibril” for short) [3] was 4-11 nm, the “ww, width of the fibril at its widest point” value (from here on “ww, width of the fibril”) [3] was 13-19 nm and the “conformation / solution state in water” value ([4]; pH<7 in water) was “monomeric random coil conformation”. The “self-assembly in low ionic strength media” value ([4]; pH=7.5, peptide concentrations up to 10 mg/ml) was “does not self-assemble”, the “time for gel to reform after mechanical agitation” value ([5]; 15 mg/ml peptide gel) was “hours” and the “time for gel to reform after mechanical agitation” value ([5]; 35 mg/ml peptide gel) was “seconds”. For the same compound, the “fibrils and gels after sterilisation using an autoclave” value ([5]; cell media) was “reform after sterilisation using an autoclave”, the “peptide concentration for homogeneous self-supporting gel” value ([5]; cell media) was “higher than 15 mg/ml” and the gel stability ([5]; room temperature, cell media) was “stable for at least several weeks”.

For `CC(=O)N[C@@H](CC(N)=O)C(=O)N[C@@H](CC(N)=O)C(=O)N[C@@H](CCCNC(=N)N)C(=O)N[C@@H](Cc1ccccc1)C(=O)N[C@@H](CCC(=O)O)C(=O)N[C@@H](Cc1c[nH]c2ccccc12)C(=O)N[C@@H](CCC(=O)O)C(=O)N[C@@H](Cc1ccccc1)C(=O)N[C@@H](CCC(=O)O)C(=O)N[C@@H](CC(N)=O)C(=O)N[C@@H](CC(N)=O)C(N)=O` [Peptide P11-15, CH3CO-N-N-R-F-E-W-E-F-E-N-N-NH2] (Ac-NNRFEWEFENN-NH2), the “Net charge at pH 7.5” value [1] was −2, the contact cytotoxicity (L929 murine fibroblasts) was “growing in contact with and onto the peptide gel matrix” and the “L, fibril contour length” value [3] was 1.3-4 μm. For the same compound, the “h, twist pitch” value [3] was 118-220 nm, the “l, fibril persistence length” value [3] was 0.3-1.2 μm and the “wn, width of the fibril” value [3] was 5-7 nm. For the same compound, the “ww, width of the fibril” value [3] was 7-10 nm, the “support of cell growth” value (L929 fibroblast cells; L929 cells in peptide gels) was “moderately successful in supporting cell growth” and the “macroscopic appearance of gel” value (L929 fibroblast cells; at end of cell culture experiment) was “little sign of macroscopic degradation”.

In the case of `CC(=O)N[C@@H](CC(N)=O)C(=O)N[C@@H](CC(N)=O)C(=O)N[C@@H](CCCNC(=N)N)C(=O)N[C@@H](Cc1ccccc1)C(=O)N[C@@H](CCCN)C(=O)N[C@@H](Cc1c[nH]c2ccccc12)C(=O)N[C@@H](CCCN)C(=O)N[C@@H](Cc1ccccc1)C(=O)N[C@@H](CCC(=O)O)C(=O)N[C@@H](CC(N)=O)C(=O)N[C@@H](CC(N)=O)C(N)=O` [Peptide P11-16, CH3CO-N-N-R-F-O-W-O-F-E-N-N-NH2] (Ac-NNRF[Orn]W[Orn]FENN-NH2), the “Net charge at pH 7.5” value [1] is reported as “+2”, the contact cytotoxicity (L929 murine fibroblasts) is reported as “growing in contact with and onto the peptide gel matrix” and the “L, fibril contour length” value [3] is reported as 1.2-3.9 μm. For the same compound, the “h, twist pitch” value [3] was 109-220 nm, the “l, fibril persistence length” value [3] was 0.5-1.6 μm and the “wn, width of the fibril” value [3] was 5-10 nm. For the same compound, the “ww, width of the fibril” value [3] was 11-20 nm.

With “QQR^+FQWQFE^-QQ (QQRFQWQFEQQ; self assembling peptide P11-2)” the “cI/N, isotropic to nematic transition concentration” value [6] was “≈ 0.9 mM”, the “persistence length of fibrils” value [7] was 20-70 μm and the “persistence length of ribbons” value [7] was 1 μm. For the same compound, the “Net charge at pH 7.5” value [1] was 0, the “inter-ribbon distance in the fibril, α” value [8] was 2-2.4 nm and the “inter-rod separation in a beta-sheet tape b2” value [8] was 0.47 nm. The “tape width b1” value [8] was 4 nm.
